This is an account of results in ChEMBL document CHEMBL1201862, “PubChem BioAssay data set” (2004).

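How tested: cells in 96-well plates exposed to compound for 48 hours at five concentrations. GI50: concentration for 50% inhibition of growth.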 The source made the active and inactive calls. No stated cut-off is given here; in the data, active = GI50 up to about 1.1 µM and inactive = higher. Bounds are passed on as bounds.

Test systems include OVCAR-5; SK-OV-3; HT-29; UO-31; OVCAR-3; Malme-3M; LOX IMVI; OVCAR-4; SF-268; NCI-H226; RXF 393; HCT-116; NCI-H23; SK-MEL-2; HOP-92; K562; SK-MEL-5; 786-0; A549.
Assay in all cases: DTP human tumour cell line panel, 48 h

By GI50 is commonly meant the concentration at which growth is held to half of that of the control. For the compound `NC(=S)NNC(=O)CCC(=O)Nc1ccc(Cl)cc1Cl`, the GI50 in the experiment with OVCAR-5, with SK-OV-3, in the experiment on HT-29, in the experiment on UO-31, in the experiment with OVCAR-3 and in the experiment with Malme-3M was > 100 µM (inactive) each time. In addition, the GI50 in the experiment with LOX IMVI was 66.8 µM (inactive); in the experiment with OVCAR-4 it was > 100 µM (inactive); in the experiment with SF-268, > 100 µM (inactive); in the experiment on NCI-H226, > 100 µM (inactive); in the experiment on RXF 393 it was > 100 µM (inactive); with HCT-116, > 100 µM (inactive). The GI50 in the experiment on NCI-H23 is > 100 µM (inactive); in the experiment with SK-MEL-2 it was 42.9 µM (inactive); with HOP-92 it was > 100 µM (inactive); in the experiment on K562, 17.7 µM (inactive); with SK-MEL-5 it was 62.7 µM (inactive); in the experiment on 786-0, > 100 µM (inactive). The GI50 with A549 is > 100 µM (inactive).
As for `CCN1c2ccccc2-c2c3c1cc(C)cc3c1ccccc1[n+]2CC`, the GI50 in the experiment on OVCAR-5 is 1.5 µM (inactive); in the experiment on SK-OV-3, 1.83 µM (inactive); with HT-29, 1.41 µM (inactive); in the experiment on UO-31 it was 7.13 µM (inactive); with OVCAR-3, 0.476 µM (active); in the experiment with Malme-3M it was 1.15 µM (inactive). Moreover, the GI50 with LOX IMVI is 0.386 µM (active); in the experiment on OVCAR-4 it was 1.57 µM (inactive); in the experiment on SF-268, 0.522 µM (active); with NCI-H226, 1.75 µM (inactive); in the experiment on RXF 393, 2.96 µM (inactive); in the experiment on HCT-116 it was 0.644 µM (active). Further, the GI50 with NCI-H23 is 1.32 µM (inactive); with SK-MEL-2 it was 1.21 µM (inactive); with HOP-92, 1.4 µM (inactive); in the experiment on K562 it was 0.323 µM (active); in the experiment on SK-MEL-5, 0.52 µM (active); in the experiment with 786-0, 1.59 µM (inactive). Besides, the GI50 in the experiment with A549 was 2.4 µM (inactive).
With `CSc1ccc2c(cc1=O)[C@@H](NC(=O)c1cccc([N+](=O)[O-])c1)CCc1cc(O)c(O)c(O)c1-2`, the GI50 with OVCAR-5 is > 100 µM (inactive); with SK-OV-3 it was 42.4 µM (inactive); in the experiment with HT-29, 37.8 µM (inactive); in the experiment on UO-31, > 100 µM (inactive); in the experiment on OVCAR-3, 35.5 µM (inactive); in the experiment on Malme-3M, 81.3 µM (inactive). Moreover, the GI50 is 17.5 µM (inactive) with LOX IMVI; 50 µM (inactive) with OVCAR-4; 57.9 µM (inactive) with SF-268; 24.2 µM (inactive) in the experiment with NCI-H226; 51.2 µM (inactive) with RXF 393; 20 µM (inactive) in the experiment on HCT-116. Also, the GI50 is 33 µM (inactive) in the experiment with NCI-H23; 34.8 µM (inactive) in the experiment with SK-MEL-2; > 100 µM (inactive) with HOP-92; 26.6 µM (inactive) with K562; 61.2 µM (inactive) in the experiment on 786-0; 53.6 µM (inactive) in the experiment on A549.
For `Cc1cc2nc3c(C#N)c4c(c(Nc5ccc(Cl)cc5)n3c2cc1C)CCC4`, the GI50 in the experiment on OVCAR-5 was 17.3 µM (inactive); in the experiment with SK-OV-3 it was > 100 µM (inactive); in the experiment with HT-29, 18.1 µM (inactive); with OVCAR-3 it was 17.9 µM (inactive); with Malme-3M, 23.8 µM (inactive); with LOX IMVI it was 18.7 µM (inactive). The GI50 in the experiment with OVCAR-4 was 32.5 µM (inactive); in the experiment with SF-268 it was 18.4 µM (inactive); with NCI-H226 it was 22.9 µM (inactive); in the experiment with RXF 393 it was 17.3 µM (inactive); with HCT-116, 16.7 µM (inactive); in the experiment on NCI-H23, 26.3 µM (inactive). Moreover, the GI50 is 23.6 µM (inactive) with HOP-92, 18.2 µM (inactive) in the experiment on SK-MEL-5 and 15.9 µM (inactive) with 786-0.
In the case of `CC(=O)OC1COC(N2CCc3ccccc32)C(OC(C)=O)C1OC(C)=O` (configuration not stated), the GI50 in the experiment on OVCAR-5 was > 100 µM (inactive); with SK-OV-3 it was > 100 µM (inactive); in the experiment with HT-29, > 100 µM (inactive); in the experiment on UO-31, > 58.7 µM (inactive); with OVCAR-3, > 100 µM (inactive); with Malme-3M, > 100 µM (inactive). Further, the GI50 with LOX IMVI, with OVCAR-4, with SF-268, in the experiment on NCI-H226, in the experiment on RXF 393 and with HCT-116 was > 100 µM (inactive) throughout. Also, the GI50 in the experiment with NCI-H23, in the experiment on SK-MEL-2, with K562, in the experiment on SK-MEL-5, with 786-0 and in the experiment with A549 was > 100 µM (inactive) in each case.
With `O=C(c1ccccc1)c1cccc(C(=O)c2ccccc2)c1`, the GI50 in the experiment with SK-OV-3 was > 100 µM (inactive); in the experiment with HT-29, > 100 µM (inactive); with UO-31, 37.2 µM (inactive); with OVCAR-3 it was > 100 µM (inactive); in the experiment on Malme-3M it was 78.2 µM (inactive); in the experiment with LOX IMVI, 33 µM (inactive). For the same compound, the GI50 in the experiment with OVCAR-4 is > 100 µM (inactive); in the experiment on SF-268, > 100 µM (inactive); in the experiment with NCI-H226, 34.3 µM (inactive); in the experiment with RXF 393, 76.4 µM (inactive); in the experiment on HCT-116, > 100 µM (inactive); in the experiment on NCI-H23, 98.2 µM (inactive). Also, the GI50 with SK-MEL-2 is > 100 µM (inactive); in the experiment on HOP-92, 53 µM (inactive); with K562 it was > 100 µM (inactive); with SK-MEL-5 it was 78.9 µM (inactive); in the experiment on 786-0, > 100 µM (inactive); with A549 it was > 100 µM (inactive).
With `CCOC(=O)CCc1c(C)c2c(OC)cc(OC)cc2oc1=O`, the GI50 was 59.3 µM (inactive) in the experiment with OVCAR-5; 91 µM (inactive) with HT-29; 65.9 µM (inactive) in the experiment with UO-31; > 100 µM (inactive) in the experiment on OVCAR-3; 51.3 µM (inactive) with Malme-3M; > 100 µM (inactive) in the experiment on LOX IMVI. For the same compound, the GI50 in the experiment on OVCAR-4 was > 100 µM (inactive); in the experiment with SF-268, 34.4 µM (inactive); in the experiment with NCI-H226, 25.5 µM (inactive); with RXF 393 it was 33.9 µM (inactive); in the experiment on HCT-116, > 100 µM (inactive); with NCI-H23, > 100 µM (inactive). Moreover, the GI50 is > 100 µM (inactive) in the experiment with SK-MEL-2, 22.3 µM (inactive) with HOP-92, 34.1 µM (inactive) in the experiment on 786-0 and > 100 µM (inactive) with A549.
For the compound `Cc1nc2ccc(F)cc2c2c1CCO2`, the GI50 with OVCAR-5 was > 100 µM (inactive); in the experiment on HT-29 it was 82.6 µM (inactive); in the experiment with UO-31 it was 92.3 µM (inactive); in the experiment on Malme-3M, > 100 µM (inactive); with LOX IMVI, > 100 µM (inactive); with OVCAR-4, > 100 µM (inactive). Further, the GI50 in the experiment on SF-268 was > 100 µM (inactive); in the experiment with NCI-H226 it was > 100 µM (inactive); in the experiment with RXF 393 it was 36.8 µM (inactive); in the experiment on HCT-116, 68.1 µM (inactive); in the experiment with NCI-H23, > 100 µM (inactive); in the experiment with SK-MEL-2, > 100 µM (inactive). For the same compound, the GI50 with HOP-92 was 78.7 µM (inactive); with K562, 41.5 µM (inactive); in the experiment with SK-MEL-5, 43.5 µM (inactive); in the experiment on 786-0, > 100 µM (inactive); in the experiment on A549, > 100 µM (inactive).
`O=C(CC1C(=O)Nc2ccccc2[S+]1[O-])Nc1ccccc1` (configuration not stated): the GI50 with OVCAR-5 is > 100 µM (inactive); in the experiment on SK-OV-3 it was 26.9 µM (inactive); with HT-29 it was > 100 µM (inactive); with UO-31, 37.5 µM (inactive); with OVCAR-3, > 100 µM (inactive); in the experiment with Malme-3M, > 100 µM (inactive). The GI50 in the experiment with OVCAR-4 was > 100 µM (inactive); with SF-268, > 100 µM (inactive); with NCI-H226, > 100 µM (inactive); in the experiment on RXF 393 it was 19.8 µM (inactive); in the experiment on HCT-116 it was > 100 µM (inactive); in the experiment with NCI-H23, > 100 µM (inactive). In addition, the GI50 with SK-MEL-2 is > 100 µM (inactive); with HOP-92, 53.8 µM (inactive); in the experiment with SK-MEL-5, > 100 µM (inactive); with 786-0, 40.8 µM (inactive); in the experiment on A549, > 100 µM (inactive).
As for `CC(C)[C@H](CCl)NC(=O)c1cccc(C(=O)N[C@H](CCl)C(C)C)n1` (stereo in doubt), the GI50 with OVCAR-5, in the experiment on SK-OV-3, with HT-29, in the experiment with UO-31, with OVCAR-3 and in the experiment on Malme-3M was > 100 µM (inactive) in each case. For the same compound, the GI50 in the experiment with LOX IMVI, with OVCAR-4, in the experiment with SF-268, in the experiment with NCI-H226, in the experiment with RXF 393 and in the experiment with HCT-116 was > 100 µM (inactive) throughout. Moreover, the GI50 in the experiment with NCI-H23, in the experiment on HOP-92, in the experiment on K562, with SK-MEL-5, in the experiment on 786-0 and in the experiment with A549 was > 100 µM (inactive) in each case.
With `Oc1cc(-c2ccccn2)nc2cc(F)ccc12`, the GI50 with OVCAR-5 was > 100 µM (inactive); in the experiment with SK-OV-3, > 100 µM (inactive); in the experiment on HT-29 it was 49.1 µM (inactive); in the experiment on UO-31, > 100 µM (inactive); in the experiment with OVCAR-3 it was > 100 µM (inactive); in the experiment on Malme-3M, 90.2 µM (inactive). In addition, the GI50 in the experiment on LOX IMVI is 71 µM (inactive); with OVCAR-4, > 100 µM (inactive); with NCI-H226, > 100 µM (inactive); in the experiment on RXF 393, > 100 µM (inactive); with HCT-116, 43.3 µM (inactive); with NCI-H23, > 100 µM (inactive). Further, the GI50 was 48.2 µM (inactive) with HOP-92; 44.9 µM (inactive) in the experiment on K562; 45.1 µM (inactive) in the experiment with SK-MEL-5; > 100 µM (inactive) in the experiment on 786-0; 46 µM (inactive) with A549.
